Read-outs that look alike come from different tables or passages of the source.
Key:
[1] = system: Mycosphaerella graminicola; Anamorph: Septoria tritici; experiment: Leaf blotch of wheat (SEPTTR) disease control on wheat seedlings; type: in vivo; settings: Zymoseptoria tritici; for pest or weed control at 121.5 g/ha: low volume application, 121.5 g/H
How it was run: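 Wheat seedlings (Yuma, first leaf emerged) sprayed to run-off with compound in acetone/water with 110 ppm Triton X-100, or track-sprayed as EC with 0.1% Trycol 5941. Septoria tritici spores inoculated before or after treatment. Dew chambers, then 20 °C greenhouse. Percent disease control derived from severity (0–100%) relative to untreated plants.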

[2] = system: Puccinia triticina; Synonym: Puccinia recondite f. sp. tritici; experiment: Wheat brown rust (PUCCRT) disease control on wheat seedlings; type: in vivo; settings: Puccinia triticina; for pest or weed control at 121.5 g/ha: low volume application, 121.5 g/H
How it was run: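 Acetone solutions diluted in nine volumes of water with 110 ppm Triton X-100 sprayed to run-off on first-leaf Yuma wheat seedlings (track spray: EC with 0.1% Trycol 5941). Puccinia triticina spores inoculated before or after treatment; overnight dark dew at 22° C., 100% RH, then greenhouse at 24° C. for disease development.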

Phakopsora pachyrhizi = experiment: Asian soybean rust (PHAKPA) disease control; type: in vivo; settings: topical, high volume
Experimental: Technical grades of materials were dissolved in acetone, which were then mixed with nine volumes of water containing 0.011% Tween 20. The fungicide solutions were applied onto soybean seedlings using an automated booth sprayer to run-off. All sprayed plants were allowed to air dry prior to further handling.
Soybean plants (variety Williams 82) were grown in soil-less Metro mix, with one plant per pot. Two weeks old seedlings were used for testing. Plants were inoculated either 3 days prior to or 1 day after fungicide treatments. Plants were incubated for 24 h in a dark dew room at 22° C. and 100% RH then transferred to a growth room at 23° C. for disease to develop. Disease severity was assessed on the sprayed leaves.

[3] = system: Glomerella lagenarium; Anamorph: Colletotrichum lagenarium; experiment: Cucumber anthracnose (COLLLA) disease control; type: in vivo; settings: Colletotrichum orbiculare, 24 h, 1 Day Protectant, high volume, read-out: Disease Control COLLLA 1 DP
Experimental: Technical grades of materials were dissolved in acetone, which were then mixed with nine volumes of water containing 110 ppm Triton X-100. The fungicide solutions were applied onto wheat seedlings using an automated booth sprayer to run-off. All sprayed plants were allowed to air dry prior to further handling. All fungicides were evaluated using the aforementioned method for their activity vs. all target diseases. Wheat leaf blotch and brown rust activity were also evaluated using track spray applications, in which case the fungicides were formulated as EC formulations, containing 0.1% Trycol 5941 in the spray solutions. Cucumber seedlings (variety Bush Pickle) were propagated in soil-less Metro mix, with each pot having one plant, and used in the test when 12 to 14 days old. Test plants were inoculated with an aqueous spore suspension of Colletotrichum lagenarium 24 hr after fungicide treatments. After inoculation the plants were kept in a dew room at 22° C. with 100% relative humidity for 48 hr to permit spores to germinate and infect the leaf. The plants were then transferred to a growth room set at 22° C. for disease to develop. Fungicide formulation, application and disease assessment on the sprayed leaves followed the procedures as described in the Example A.

[4] = 24 h, High volume application, 1 Day Protectant, read-out: SEPTTR 1DP disease control
[5] = 72 h, High volume application, 3 Day Curative, read-out: SEPTTR 3DC disease control
[6] = 24 h, High volume application, 1 Day Protectant, read-out: PUCCRT 1DP disease control
[7] = 72 h, High volume application, 3 Day Curative, read-out: PUCCRT 3DC disease control
[8] = 24 h, 1 Day Protectant, read-out: Disease Control PHAKPA 1DP
[9] = 72 h, 3 Day Curative, read-out: Disease Control PHAKPA 3DC
[10] = 24 h, Wheat Leaf Blotch, 1 Day Protectant, high volume application, read-out: Disease Control SEPTTR 1 DP 100 ppm
[11] = 24 h, Wheat Leaf Blotch, 1 Day Protectant, read-out: Disease Control SEPTTR 1 DP 121.5 g/H
[12] = 72 h, Wheat Leaf Blotch, 3 Day Curative, high volume application, read-out: Disease Control SEPTTR 3 DC 100 ppm
[13] = 72 h, Wheat Leaf Blotch, 3 Day Curative, read-out: Disease Control SEPTTR 3 DC 121.5 g/H
[14] = 24 h, Wheat Brown Rust, 1 Day Protectant, high volume application, read-out: Disease Control PUCCRT 1 DP 100 ppm
[15] = 24 h, Wheat Brown Rust, 1 Day Protectant, read-out: Disease Control PUCCRT 1 DP 121.5 g/H
[16] = 72 h, Wheat Brown Rust, 3 Day Curative, high volume application, read-out: Disease Control PUCCRT 3 DC 100 ppm
[17] = 72 h, Wheat Brown Rust, 3 Day Curative, read-out: Disease Control PUCCRT 3 DC 121.5 g/H

| SMILES | pest or weed control at 100 ppm [1, 4] [%] | pest or weed control at 100 ppm [1, 5] [%] | pest or weed control at 100 ppm [2, 6] [%] | pest or weed control at 100 ppm [2, 7] [%] | pest or weed control at 25 ppm (Phakopsora pachyrhizi; [8]) [%] | other results |
| --- | --- | --- | --- | --- | --- | --- |
| COc1ccc(O[C@H]2CCC[C@H](N)C(=O)O[C@@H](C)[C@@H]2OCC(C)C)cc1.Cl | – | – | – | – | – | melting point: 198 to 200 °C |
| COc1ccnc(C(=O)N[C@H]2CCC[C@H](OCC(C)C)[C@@H](OC/C=C/C(F)(F)F)[C@H](C)OC2=O)c1OCOC(C)=O [F59] | 80 to 100 | 80 to 100 | 80 to 100 | 80 to 100 | 80 to 100 | – |
| CC(C)CO[C@H]1CCC[C@H](N)C(=O)O[C@@H](C)[C@@H]1OC/C=C/C(F)(F)F.Cl | – | – | – | – | – | melting point: 236 to 240 °C |
| COc1ccnc(C(=O)N[C@H]2CCC[C@H](OC3CCCC3)[C@@H](OC3CCCC3)[C@H](C)OC2=O)c1OCOC(C)=O [F217] | 80 to 100 | 80 to 100 | 80 to 100 | 80 to 100 | 80 to 100 | pest or weed control at 100 ppm [3]: 80 to 100% |
| COc1ccnc(C(=O)N[C@H]2CCC[C@H](OCCCc3ccccc3)[C@@H](Oc3ccccc3)[C@H](C)OC2=O)c1OCOC(C)=O [F133] | 80 to 100 | 80 to 100 | 80 to 100 | 80 to 100 | 80 to 100 | pest or weed control at 25 ppm (Phakopsora pachyrhizi; [9]): 0 to 80% |
| COCCC(=O)Oc1c(OC)ccnc1C(=O)N[C@H]1CCC[C@H](Oc2ccccc2)[C@@H](OC(=O)C2CC2)[C@H](C)OC1=O [F243] | – | – | – | – | 80 to 100 | pest or weed control at 100 ppm [1, 10]: 80 to 100%; pest or weed control at 121.5 g/ha [1, 11]: 0 to 80%; pest or weed control at 100 ppm [1, 12]: 80 to 100%; pest or weed control at 121.5 g/ha [1, 13]: 80 to 100%; pest or weed control at 100 ppm [2, 14]: 80 to 100%; pest or weed control at 121.5 g/ha [2, 15]: 80 to 100%; pest or weed control at 100 ppm [2, 16]: 80 to 100%; pest or weed control at 121.5 g/ha [2, 17]: 80 to 100%; pest or weed control at 25 ppm (Phakopsora pachyrhizi; [9]): 0 to 80% |
| COc1ccnc(C(=O)N[C@H]2CCC[C@H](Oc3ccccc3)[C@@H](OC(=O)C3CCCC3)[C@H](C)OC2=O)c1OCOC(=O)C(C)C [F234] | – | – | – | – | – | pest or weed control at 100 ppm [1, 10]: 80 to 100%; pest or weed control at 121.5 g/ha [1, 11]: 80 to 100%; pest or weed control at 100 ppm [1, 12]: 80 to 100%; pest or weed control at 121.5 g/ha [1, 13]: < 0%; pest or weed control at 100 ppm [2, 14]: 80 to 100%; pest or weed control at 121.5 g/ha [2, 15]: 80 to 100%; pest or weed control at 100 ppm [2, 16]: 80 to 100%; pest or weed control at 121.5 g/ha [2, 17]: < 0% |
| COc1ccnc(C(=O)N[C@H]2CCC[C@H](OCCCC(F)(F)F)[C@@H](Oc3ccccc3)[C@H](C)OC2=O)c1OCOC(C)=O [F135] | 80 to 100 | 80 to 100 | 80 to 100 | 80 to 100 | – | – |
| COCCC(=O)Oc1c(OC)ccnc1C(=O)N[C@H]1CCC[C@H](OCC(C)C)[C@@H](OC(=O)C2CCCC2)[C@H](C)OC1=O [F152] | 80 to 100 | 80 to 100 | 80 to 100 | 80 to 100 | – | – |
| COc1ccnc(C(=O)N[C@H]2CCC[C@H](OC(=O)C3CCCC3)[C@@H](OC3CCCC3)[C@H](C)OC2=O)c1OC(C)=O [F159] | 80 to 100 | 80 to 100 | 80 to 100 | 80 to 100 | – | – |
| CCCCCO[C@H]1[C@H](C)OC(=O)[C@@H](NC(=O)c2nccc(OC)c2OC(C)=O)CCC[C@@H]1OCC(C)C [F89] | 80 to 100 | 80 to 100 | 80 to 100 | 80 to 100 | – | – |
| COc1ccnc(C(=O)N[C@H]2CCC[C@H](OC3CCCC3)[C@@H](OC3CCCC3)[C@H](C)OC2=O)c1OCOC(=O)C(C)C [F76] | 80 to 100 | 80 to 100 | 80 to 100 | 80 to 100 | 80 to 100 | – |

— patent publication US9681664B2, “Macrocyclic picolinamides as fungicides” (Dow Agrosciences LLC, priority 2012, dated 2017)
